Data taken from the supplement of paper PMC10307832.

Tests used:
Assay in all cases: relative viability (nuclei count vs DMSO), 5 days (fraction); higher = more cells survive
[1] = system: PC-3 [JPC-3]
Outline: (§1)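 After 5 days of treatment, lung cancer cells in 1536-well plates were fixed and stained in a single step (final 0.05% Triton X-100, 1% formaldehyde, 1 ug/ml Hoechst) and their nuclei counted on 4× images. Treatment had been applied by pin tool the day after seeding as one drug alone or as a fixed anchor-drug dose with five library-drug doses (not always all listed) in √10 steps. Relative viability is the nuclei count of treated wells divided by that of vehicle wells, and values are medians of duplicate plates.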

[2] = system: NCI-H2126
Outline: as §1

[3] = system: NCI-H1975
Outline: as §1

[4] = system: NCI-H1915
Outline: as §1

[5] = system: NCI-H1755
Outline: as §1

[6] = system: LXF-289
Outline: as §1

[7] = system: NCI-H647
Outline: as §1

[8] = system: NCI-H2228
Outline: as §1

[9] = system: HCC-15
Outline: as §1

[10] = system: NCI-H2347
Outline: as §1

[11] = system: HOP-62
Outline: as §1

[12] = system: A-427
Outline: as §1

[13] = system: LC-2-ad
Outline: as §1

[14] = system: NCI-H1734
Outline: as §1

[15] = system: NCI-H1792
Outline: as §1

[16] = system: RERF-LC-KJ
Outline: as §1

[17] = system: NCI-H358
Outline: as §1

[18] = system: HCC-78
Outline: as §1

[19] = system: SK-LU-1
Outline: as §1

[20] = system: SW 1573
Outline: as §1

Question: How did the relative viability ([1]; first compound 0.005 µM) turn out when `Nc1ccn([C@@H]2O[C@H](CO)[C@@H](O)[C@@H]2O)c(=O)n1` [Cytarabine] + Cc1nc(NC(=O)N2CCC[C@H]2C(N)=O)sc1-c1ccnc(C(C)(C)C(F)(F)F)c1 [Alpelisib] (partner 2 µM) was run?
Answer: Its relative viability is 0.95.

Question: What about the relative viability ([1]; first compound 0.01581 µM) of the same compound?
Answer: The relative viability was 0.926.

Question: And the relative viability ([1]; first compound 0.05 µM)?
Answer: Its relative viability is 0.927.

Question: What about the relative viability ([1]; first compound 0.1581 µM) of the same compound?
Answer: The relative viability was 0.634.

Question: And the relative viability ([1]; first compound 0.5 µM)?
Answer: Its relative viability is 0.65.

Question: And the relative viability ([2]; first compound 0.005 µM)?
Answer: The relative viability was 0.765.

Question: And the relative viability ([2]; first compound 0.01581 µM)?
Answer: The relative viability was 0.597.

Question: And the relative viability ([2]; first compound 0.05 µM)?
Answer: The relative viability was 0.694.

Question: And the relative viability ([2]; first compound 0.1581 µM)?
Answer: The relative viability was 0.564.

Question: What about the relative viability ([2]; first compound 0.5 µM) of the same compound?
Answer: Its relative viability is 0.408.

Question: And the relative viability ([3]; first compound 0.005 µM)?
Answer: The relative viability was 0.442.

Question: And the relative viability ([3]; first compound 0.01581 µM)?
Answer: Its relative viability is 0.761.

Question: And the relative viability ([3]; first compound 0.05 µM)?
Answer: The relative viability was 0.801.

Question: And the relative viability ([3]; first compound 0.1581 µM)?
Answer: The relative viability was 0.418.

Question: And the relative viability ([3]; first compound 0.5 µM)?
Answer: The relative viability was 0.313.

Question: What about the relative viability ([4]; first compound 0.005 µM) of the same compound?
Answer: The relative viability was 1.04.

Question: What about the relative viability ([4]; first compound 0.01581 µM) of the same compound?
Answer: Its relative viability is 0.915.

Question: What about the relative viability ([4]; first compound 0.05 µM) of the same compound?
Answer: The relative viability was 0.851.

Question: What about the relative viability ([4]; first compound 0.1581 µM) of the same compound?
Answer: Its relative viability is 0.493.

Question: What about the relative viability ([4]; first compound 0.5 µM) of the same compound?
Answer: Its relative viability is 0.394.

Question: And the relative viability ([5]; first compound 0.005 µM)?
Answer: Its relative viability is 0.925.

Question: And the relative viability ([5]; first compound 0.01581 µM)?
Answer: Its relative viability is 0.878.

Question: What about the relative viability ([5]; first compound 0.05 µM) of the same compound?
Answer: Its relative viability is 0.75.

Question: What about the relative viability ([5]; first compound 0.1581 µM) of the same compound?
Answer: The relative viability was 0.244.

Question: What about the relative viability ([5]; first compound 0.5 µM) of the same compound?
Answer: Its relative viability is 0.273.

Question: What about the relative viability ([6]; first compound 0.005 µM) of the same compound?
Answer: The relative viability was 1.02.

Question: And the relative viability ([6]; first compound 0.01581 µM)?
Answer: Its relative viability is 1.05.

Question: What about the relative viability ([6]; first compound 0.05 µM) of the same compound?
Answer: The relative viability was 0.764.

Question: And the relative viability ([6]; first compound 0.1581 µM)?
Answer: Its relative viability is 0.356.

Question: What about the relative viability ([6]; first compound 0.5 µM) of the same compound?
Answer: Its relative viability is 0.268.

Question: And the relative viability ([7]; first compound 0.005 µM)?
Answer: Its relative viability is 0.491.

Question: And the relative viability ([7]; first compound 0.01581 µM)?
Answer: Its relative viability is 0.356.

Question: And the relative viability ([7]; first compound 0.05 µM)?
Answer: The relative viability was 0.142.

Question: What about the relative viability ([7]; first compound 0.1581 µM) of the same compound?
Answer: The relative viability was 0.086.

Question: What about the relative viability ([7]; first compound 0.5 µM) of the same compound?
Answer: The relative viability was 0.0694.

Question: What about the relative viability ([8]; first compound 0.005 µM) of the same compound?
Answer: Its relative viability is 0.403.

Question: And the relative viability ([8]; first compound 0.01581 µM)?
Answer: The relative viability was 0.201.

Question: And the relative viability ([8]; first compound 0.05 µM)?
Answer: The relative viability was 0.251.

Question: What about the relative viability ([8]; first compound 0.1581 µM) of the same compound?
Answer: The relative viability was 0.207.

Question: What about the relative viability ([8]; first compound 0.5 µM) of the same compound?
Answer: The relative viability was 0.164.

Question: What about the relative viability ([9]; first compound 0.005 µM) of the same compound?
Answer: Its relative viability is 0.832.

Question: What about the relative viability ([9]; first compound 0.01581 µM) of the same compound?
Answer: The relative viability was 0.878.

Question: What about the relative viability ([9]; first compound 0.05 µM) of the same compound?
Answer: Its relative viability is 0.844.

Question: What about the relative viability ([9]; first compound 0.1581 µM) of the same compound?
Answer: The relative viability was 0.745.

Question: What about the relative viability ([9]; first compound 0.5 µM) of the same compound?
Answer: Its relative viability is 0.546.

Question: And the relative viability ([10]; first compound 0.005 µM)?
Answer: The relative viability was 1.22.

Question: And the relative viability ([10]; first compound 0.01581 µM)?
Answer: The relative viability was 0.964.

Question: And the relative viability ([10]; first compound 0.05 µM)?
Answer: Its relative viability is 0.868.

Question: And the relative viability ([10]; first compound 0.1581 µM)?
Answer: Its relative viability is 0.691.

Question: What about the relative viability ([10]; first compound 0.5 µM) of the same compound?
Answer: The relative viability was 0.663.

Question: What about the relative viability ([11]; first compound 0.005 µM) of the same compound?
Answer: The relative viability was 0.793.

Question: What about the relative viability ([11]; first compound 0.01581 µM) of the same compound?
Answer: The relative viability was 0.394.

Question: What about the relative viability ([11]; first compound 0.05 µM) of the same compound?
Answer: The relative viability was 0.348.

Question: What about the relative viability ([11]; first compound 0.1581 µM) of the same compound?
Answer: The relative viability was 0.0724.

Question: What about the relative viability ([11]; first compound 0.5 µM) of the same compound?
Answer: The relative viability was 0.102.

Question: What about the relative viability ([12]; first compound 0.005 µM) of the same compound?
Answer: The relative viability was 0.823.

Question: What about the relative viability ([12]; first compound 0.01581 µM) of the same compound?
Answer: Its relative viability is 0.518.

Question: And the relative viability ([12]; first compound 0.05 µM)?
Answer: The relative viability was 0.226.

Question: And the relative viability ([12]; first compound 0.1581 µM)?
Answer: The relative viability was 0.155.

Question: What about the relative viability ([12]; first compound 0.5 µM) of the same compound?
Answer: The relative viability was 0.14.

Question: And the relative viability ([13]; first compound 0.005 µM)?
Answer: The relative viability was 0.898.

Question: And the relative viability ([13]; first compound 0.01581 µM)?
Answer: The relative viability was 0.785.

Question: What about the relative viability ([13]; first compound 0.05 µM) of the same compound?
Answer: The relative viability was 0.802.

Question: And the relative viability ([13]; first compound 0.1581 µM)?
Answer: Its relative viability is 0.441.

Question: And the relative viability ([13]; first compound 0.5 µM)?
Answer: The relative viability was 0.228.

Question: What about the relative viability ([14]; first compound 0.005 µM) of the same compound?
Answer: The relative viability was 0.39.

Question: What about the relative viability ([14]; first compound 0.01581 µM) of the same compound?
Answer: The relative viability was 0.265.

Question: What about the relative viability ([14]; first compound 0.05 µM) of the same compound?
Answer: Its relative viability is 0.204.

Question: And the relative viability ([14]; first compound 0.1581 µM)?
Answer: The relative viability was 0.139.

Question: And the relative viability ([15]; first compound 0.005 µM)?
Answer: The relative viability was 0.553.

Question: What about the relative viability ([15]; first compound 0.01581 µM) of the same compound?
Answer: The relative viability was 0.644.

Question: And the relative viability ([15]; first compound 0.05 µM)?
Answer: Its relative viability is 0.659.

Question: And the relative viability ([15]; first compound 0.1581 µM)?
Answer: The relative viability was 0.387.

Question: And the relative viability ([15]; first compound 0.5 µM)?
Answer: Its relative viability is 0.343.

Question: And the relative viability ([16]; first compound 0.005 µM)?
Answer: The relative viability was 0.742.

Question: What about the relative viability ([16]; first compound 0.01581 µM) of the same compound?
Answer: The relative viability was 0.657.

Question: What about the relative viability ([16]; first compound 0.05 µM) of the same compound?
Answer: The relative viability was 0.864.

Question: What about the relative viability ([16]; first compound 0.1581 µM) of the same compound?
Answer: The relative viability was 0.499.

Question: And the relative viability ([16]; first compound 0.5 µM)?
Answer: Its relative viability is 0.36.

Question: And the relative viability ([17]; first compound 0.005 µM)?
Answer: Its relative viability is 0.573.

Question: And the relative viability ([17]; first compound 0.01581 µM)?
Answer: The relative viability was 0.516.

Question: What about the relative viability ([17]; first compound 0.05 µM) of the same compound?
Answer: The relative viability was 0.363.

Question: And the relative viability ([17]; first compound 0.1581 µM)?
Answer: Its relative viability is 0.177.

Question: What about the relative viability ([17]; first compound 0.5 µM) of the same compound?
Answer: Its relative viability is 0.148.

Question: What about the relative viability ([18]; first compound 0.005 µM) of the same compound?
Answer: The relative viability was 0.41.

Question: What about the relative viability ([18]; first compound 0.01581 µM) of the same compound?
Answer: Its relative viability is 0.298.

Question: What about the relative viability ([18]; first compound 0.05 µM) of the same compound?
Answer: Its relative viability is 0.281.

Question: And the relative viability ([18]; first compound 0.1581 µM)?
Answer: Its relative viability is 0.185.

Question: What about the relative viability ([18]; first compound 0.5 µM) of the same compound?
Answer: Its relative viability is 0.202.

Question: What about the relative viability ([19]; first compound 0.005 µM) of the same compound?
Answer: The relative viability was 0.805.

Question: What about the relative viability ([19]; first compound 0.01581 µM) of the same compound?
Answer: Its relative viability is 0.826.

Question: What about the relative viability ([19]; first compound 0.05 µM) of the same compound?
Answer: The relative viability was 0.62.

Question: And the relative viability ([19]; first compound 0.1581 µM)?
Answer: The relative viability was 0.347.

Question: And the relative viability ([19]; first compound 0.5 µM)?
Answer: The relative viability was 0.303.

Question: And the relative viability ([20]; first compound 0.005 µM)?
Answer: The relative viability was 0.793.

Question: And the relative viability ([20]; first compound 0.01581 µM)?
Answer: The relative viability was 0.602.

Question: And the relative viability ([20]; first compound 0.05 µM)?
Answer: The relative viability was 0.7.

Question: And the relative viability ([20]; first compound 0.1581 µM)?
Answer: Its relative viability is 0.219.

Question: What about the relative viability ([20]; first compound 0.5 µM) of the same compound?
Answer: Its relative viability is 0.182.
